Source: PMC11841054 (Journal of Bacteriology, 2025)

Legend:
[1] = target: T1, GlnA3Sc (Streptomyces coelicolor, UniProt Q9KZC7); assay: GS activity assay, phosphate release; format: biochemical; conditions: 50 mM substrate; glutamate and ATP co-substrates
T1 construct: gene glnA3; His-tagged (pYT/his-glnA3, pYT9 derivative) from E. coli BL21

[2] = target: T2, GlnA3Mt (Mycobacterium tuberculosis, UniProt O07752)
T2 construct: gene glnA3
T2 sequence (O07752 1-450): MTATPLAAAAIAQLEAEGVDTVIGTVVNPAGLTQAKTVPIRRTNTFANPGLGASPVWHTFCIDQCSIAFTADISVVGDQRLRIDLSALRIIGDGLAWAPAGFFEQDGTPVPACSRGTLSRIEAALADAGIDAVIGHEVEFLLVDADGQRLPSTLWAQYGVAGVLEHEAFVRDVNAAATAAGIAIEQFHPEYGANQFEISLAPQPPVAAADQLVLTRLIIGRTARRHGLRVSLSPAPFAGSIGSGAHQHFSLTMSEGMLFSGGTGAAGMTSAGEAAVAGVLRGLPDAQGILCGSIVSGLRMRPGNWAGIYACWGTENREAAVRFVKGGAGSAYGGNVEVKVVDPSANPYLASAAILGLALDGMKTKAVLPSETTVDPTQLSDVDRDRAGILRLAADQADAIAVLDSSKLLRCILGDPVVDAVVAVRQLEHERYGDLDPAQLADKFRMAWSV

T1 sequence (Q9KZC7 whole entry): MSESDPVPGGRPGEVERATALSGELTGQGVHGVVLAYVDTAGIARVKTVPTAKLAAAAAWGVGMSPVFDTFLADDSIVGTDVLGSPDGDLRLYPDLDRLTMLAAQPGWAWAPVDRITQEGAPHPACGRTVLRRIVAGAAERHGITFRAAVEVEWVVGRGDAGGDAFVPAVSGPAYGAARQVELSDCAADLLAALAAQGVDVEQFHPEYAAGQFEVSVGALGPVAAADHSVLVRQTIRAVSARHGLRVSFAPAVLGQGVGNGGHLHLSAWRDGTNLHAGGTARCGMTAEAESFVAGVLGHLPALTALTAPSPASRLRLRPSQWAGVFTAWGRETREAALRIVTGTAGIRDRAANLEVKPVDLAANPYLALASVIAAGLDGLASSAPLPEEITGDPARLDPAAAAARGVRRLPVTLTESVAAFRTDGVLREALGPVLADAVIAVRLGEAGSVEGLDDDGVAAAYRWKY

Compound | GS activity assay, phosphate release [1] | GS activity assay, phosphate release; HPLC/ESI-MS of gamma-glutamylspermidine [2]
NCCCCNCCCN [spermidine] | possesses the highest turnover rate when using spermine or spermidine as substrates | the highest activity was observed with spermine and spermidine
NCCCNCCCCNCCCN [spermine] | possesses the highest turnover rate when using spermine or spermidine as substrates | 
